Measured values reported in patent EP0771564A1, “INTERLEUKIN-5 PRODUCTION INHIBITOR” (TAISHO PHARMACEUTICAL CO. LTD, priority 1994, dated 1996).

Key:
ICR male mice = assay: Oral administration safety test in mice (mortality); assay type: in vivo; details: orally administered to ICR male mice, dose level of 100 mg/kg
Excerpt: The compounds of Examples 1 and 2 were orally administered to ICR male mice grouped in fives.

IL-5 production = assay: Inhibition of IL-5 production by antigen-stimulated murine Th2 clone D10.G4.1 cells (IL-5 ELISA of culture supernatant); assay type: cell-based, mice; details: inhibitory effect on IL-5 production, D10.G4.1 cells with MMC-treated antigen presenting cells and conalbumin, 48 hours incubation
Protocol: Murine Th2 clone (D10.G4.1 cells) was purchased from ATCC. Antigen presenting cells were prepared by suspending 1 x 10^7 spleen cells of a 8-week-old female C3H/HeN mice in 5 ml of an RPMI-1640 medium and incubated together with 50 µg/ml of mitomycin C (MMC) at 37°C for 30 minutes and then washed with three 50 ml portions of RPMI-1640. To RPMI-1640 containing 10% bovine serium were added 0.5 U of IL-2 (produced by Genzyme) and 5 x 10^-5 M of 2-mercaptoethanol to prepare a medium for tissue culture.
In each well of a 96-well microtiter plate (produced by Corning Glass Works) were put each 50 µl/well of 4 x 10^5 cells/ml of D10.G4.1 cells, 2 x 10^6 cells/ml of MMC-treated antigen presenting cells, 400 µg/ml of conalbumin (produced by Sigma) as an antigen and the solution of the test compound in the tissue culture medium (to make 200 µl/well), and incubated in an incubator under 5% CO2 at 37°C for 48 hours. After completion of the incubation, the supernatant liquor of the culture was collected, and the cells were seprated by centrifugation. The IL-5 in the supernatant liquor was determined with an IL-5 ELISA kit produced by ENDOGEN.

IC50 (IL-5 production; Mus musculus) [nM]	Compound	death (ICR male mice)	IC50 (IL-5 production) [nM]
–	CCC1OC(=O)C(C)C(Oc2c(F)c(F)c(F)c(F)c2[N+](=O)[O-])C(C)C(OC2OC(C)CC(N(C)C)C2O)C(C)(OC)CC(C)C(=O)C(C)C(O)C1(C)O (centres unmarked) [Compound of Example 2, 3-O-(2-Nitro-3,4,5,6-tetrafluoro)-phenyl-5-O-desosaminyl-6-O-methylerythronolide A]	No death was observed	< 100
930	CC[C@H]1OC(=O)[C@H](C)[C@@H](O[C@H]2C[C@@](C)(OC)[C@@H](O)[C@H](C)O2)[C@H](C)[C@@H](O[C@@H]2O[C@H](C)C[C@H](N(C)C)[C@H]2O)[C@](C)(O)C[C@@H](C)/C(=N\OCOCCOC)[C@H](C)[C@@H](O)[C@]1(C)O [Roxithromycin, reference compound]	–	–
4500	CC[C@H]1OC(=O)[C@H](C)[C@@H](O[C@H]2C[C@@](C)(OC)[C@@H](O)[C@H](C)O2)[C@H](C)[C@@H](O[C@@H]2O[C@H](C)C[C@H](N(C)C)[C@H]2O)[C@](C)(O)C[C@@H](C)C(=O)[C@H](C)[C@@H](O)[C@]1(C)O [Erythromycin, reference compound]	–	–
–	3-O-(4-Biphenyl)acetyl-5-O-desosaminyl-6-O-methylerythronolide A 11,12-Cyclic Carbonate [Compound of Example 1]	–	< 400
